The structures appear in SMILES notation.

What is called melting point is the temperature of the solid-liquid transition. `CCCn1c(CCCc2ccc(OC(C)(C)C(=O)O)cc2)nn(Cc2ccc(C)cc2)c1=O` registered a melting point of 94 to 96.5 °C. The molecule `CCCn1c(CCCc2ccc(OC)cc2)nn(Cc2ccc(C)cc2)c1=O` [Example 118, 5-[3-(4-Methoxyphenyl)-propyl]-2-(4-methylbenzyl)-4-propyl-2,4-dihydro[1,2,4]tria-zol-3-one] had a melting point of 86.5 to 88.2 °C.

(Values after patent US7304062B2, “Peroxisome proliferator activated receptor alpha agonists” (Eli Lilly and Company, priority 2000, dated 2007).)
